Assay results from PubChem BioAssay (NCI).
“And” between values parts separate entries of the source, which are not always exact repeats. Equal values may be shown once.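 Growth conditions: 96-well plates. Treatment: test compound, 48 hours, 5 concentrations. Analysis: linear interpolation between bracketing concentrations; unreached endpoints set to highest concentration. The concentration for 50% growth inhibition is given as GI50. TGI marks complete inhibition of growth.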

Columns and labels:
Test in all cases: NCI tumour cell line growth inhibition, 48 h
COLO 205 colon = tested on: COLO 205 colon
HCT-15 colon = tested on: HCT-15 colon
U251 CNS = tested on: U251 CNS
SNB-75 CNS = tested on: SNB-75 CNS
SNB-19 CNS = tested on: SNB-19 CNS
T-47D breast = tested on: T-47D breast
MDA-MB-231 breast = tested on: MDA-MB-231 breast
HL-60(TB) leukemia = tested on: HL-60(TB) leukemia
M14 melanoma = tested on: M14 melanoma
OVCAR-4 ovarian = tested on: OVCAR-4 ovarian

SMILES | GI50 (COLO 205 colon) | TGI (COLO 205 colon) | GI50 (HCT-15 colon) | TGI (HCT-15 colon) | GI50 (U251 CNS) | TGI (U251 CNS) | GI50 (SNB-75 CNS) | TGI (SNB-75 CNS) | GI50 (SNB-19 CNS) | TGI (SNB-19 CNS) | GI50 (T-47D breast) | TGI (T-47D breast) | GI50 (MDA-MB-231 breast) | TGI (MDA-MB-231 breast) | GI50 (HL-60(TB) leukemia) | TGI (HL-60(TB) leukemia) | GI50 (M14 melanoma) | TGI (M14 melanoma) | GI50 (OVCAR-4 ovarian) | TGI (OVCAR-4 ovarian)
CCCCCCCCOC(=O)CC[C@@H](C)[C@H]1CC[C@H]2[C@@H]3[C@H](OC(=O)CCN)C[C@@H]4C[C@H](OC(=O)CCN)CC[C@]4(C)[C@H]3C[C@H](OC(=O)CCN)[C@]12C | 4.74 µM | 20.6 µM | 16.4 µM | 38.9 µM | 1.95 µM | 3.61 µM | 3.32 µM | 13.6 µM | 3.48 µM | 13.8 µM | 12.3 µM | 39.9 µM | 2.44 µM | 7.9 µM | 3.32 µM | 11.3 µM | 4.61 µM | 22.9 µM | 6.31 µM | 28.5 µM
CC(C)c1cnn2c(NCc3ccccc3)cc(NC[C@H]3CCNC[C@@H]3O)nc12 | 0.179 µM and 0.21 µM | 0.476 µM and 0.749 µM | 2.94 µM and 2.69 µM | 15.2 µM and 12.2 µM | 0.378 µM and 0.382 µM | 10.7 µM and 10.4 µM | 0.515 µM and 1.32 µM | 2.04 µM and 2.83 µM | 0.495 µM and 0.611 µM | 9.76 µM and 8.48 µM | 0.472 µM and 0.898 µM | 7.58 µM and 9.5 µM | 0.388 µM and 0.536 µM | 7.52 µM and 3.67 µM | 0.132 µM and 0.297 µM | 0.584 µM and 1.71 µM | 0.586 µM and 0.688 µM | 2.25 µM and 2.2 µM | 0.304 µM and 0.597 µM | 2.8 µM and 3.62 µM
NCCSSCCN | – | > 100 µM | – | > 100 µM | – | > 100 µM | – | > 100 µM | – | > 100 µM | – | > 100 µM | – | > 100 µM | – | > 100 µM | – | > 100 µM | – | > 100 µM
COC(=O)c1cc2c3ccccc3n3c(=O)c4cc5ccc(N(S(=O)(=O)c6ccc(C)cc6)S(=O)(=O)c6ccc(C)cc6)cc5nc4c(n1)c23 | > 100 µM | > 100 µM | > 100 µM | > 100 µM | 10.1 µM | 45.2 µM | 44.5 µM | > 100 µM | 26.6 µM | 78.3 µM | > 100 µM | > 100 µM | 21.4 µM | > 100 µM | > 100 µM | > 100 µM | 54.4 µM | > 100 µM | > 100 µM | > 100 µM
Nc1nonc1-c1nc2cnccc2n1C1CC1 | 4.52 µM | > 14.4 µM | 6.61 µM | > 25 µM | 9.09 µM | > 25 µM | 3.02 µM | > 18.5 µM | 12 µM | > 25 µM | 5.7 µM | > 22.3 µM | 8.75 µM | > 25 µM | 5.32 µM | 14.6 µM | 14.1 µM | > 25 µM | 7.4 µM | > 25 µM
Cc1nc(-c2ccccc2)n2nc(NCCCN3CCOCC3)ncc12 | 19.1 µM | > 25 µM | 12.8 µM | > 25 µM | > 25 µM | > 25 µM | > 11.9 µM | > 25 µM | > 25 µM | > 25 µM | > 25 µM | > 25 µM | > 25 µM | > 25 µM | > 25 µM | > 25 µM | 16.5 µM | > 25 µM | 15.1 µM | > 25 µM
FC(F)(c1ccc2ncccc2c1)c1nnc2ccc(-c3ccncc3)nn12 | 91.1 µM | > 100 µM | 60 µM | > 100 µM | 95.2 µM | > 100 µM | 19 µM | > 100 µM | > 100 µM | > 100 µM | 61.9 µM | > 100 µM | 31 µM | > 100 µM | > 100 µM | > 100 µM | > 100 µM | > 100 µM | > 100 µM | > 100 µM
